Assay results as given in patent US20150141251A1, “SPONTANEOUS SELF-FORMING MIXED SURFACTANT NANO-EMULSIONS FROM WATER INSOLUBLE PESTICIDES IN MIXED WATER MISCIBLE SOLVENTS” (priority 2012, published 2015).

System: Alfalfa weevil
Assay: Alfalfa weevil control on sprayed Alfalfa plots
Format: in vivo
Details: Treatment No. 2, 0.022 lb active ingredient per acre
Text: The relative effect of pesticidal formulation of the present disclosure was studied for controlling Alfalfa weevil on Alfalfa:
To study the effect of formulation of the present disclosure, four 10×20 sq.ft plots of Alfalfa were set up for each treatment and 20 gal/acre test solution was sprayed with hand sprayer. Then 10 stems of Alfalfa per replication were collected randomly after 4 days and 7 days of treatment. The stems so collected were shaken into 1 gal white container. The evaluation results obtained are provided herein Table No. 5.

CC1(C)C(C=C(Cl)Cl)C1C(=O)OC(C#N)c1ccc(F)c(Oc2ccccc2)c1 (stereo not drawn) [Beta- CYFLUTHRIN]
Alfalfa weevil larvae/10 stems (Mean ± SE) (4 Days after treatment): 0.3 ± 0.3 larvae/10 stems
Alfalfa weevil larvae/10 stems (Mean ± SE) (7 Days after treatment): 0.0 ± 0.0 larvae/10 stems
